Laboratory results taken from ChEMBL document CHEMBL3885861, “Open TG-GATES”.

Organism: Rattus norvegicus
Assay: Open TG-GATES - Regimen: Daily Repeat
Format: toxicity, organism-based, Sprague-Dawley
Parameters: regimen Daily Repeat, gender Male, age 6 weeks
Settings: in vivo, po, 100 mg/kg, route gavage, dose level Low; for APTT / Bas / Eos / Fbg / Hb / Ht / Lym / MCHC / MCV / Mono / Neu / PT / Plat / RBC / Ret / WBC: tissue Blood; for KIDNEY_L / KIDNEY_R / KIDNEY_TOTAL: tissue Kidney; for LIVER: tissue Liver; for ALP / ALT / AST / BUN / CRE / Ca / Cl / DBIL / GLC / IP / K / LDH / Na / PL / RALB / TBIL / TG / TP / gamma-GTP: tissue Plasma

Work on `CN(C)C(=N)N=C(N)N` [METFORMIN] yielded a TERMINAL_BW (72 h, time 3 day) of 222.9 g, an APTT (72 h, time 3 day) of 16.7 s and a Bas (72 h, time 3 day) of 0.2%. For the same compound, the Eos (72 h, time 3 day) was 0.6%, the Fbg (72 h, time 3 day) was 255 mg/dL and the Hb (72 h, time 3 day) was 13.3 g/dL. It also gave a Ht (72 h, time 3 day) of 39.3%, a Lym (72 h, time 3 day) of 79% and an MCHC (72 h, time 3 day) of 33.9%. It also gave an MCV (72 h, time 3 day) of 64.1 fL, a Mono (72 h, time 3 day) of 3% and a Neu (72 h, time 3 day) of 16.6%. For the same compound, the PT (72 h, time 3 day) was 12.6 s, the Plat (72 h, time 3 day) was 114.7 x10_4/uL and the RBC (72 h, time 3 day) was 612.6 x10_4/ul. It also gave a Ret (72 h, time 3 day) of 6.7%, a WBC (72 h, time 3 day) of 119.8 x10_2/uL and a KIDNEY_L (72 h, time 3 day) of 0.9 g. The KIDNEY_R (72 h, time 3 day) was 0.9 g, the KIDNEY_TOTAL (72 h, time 3 day) was 1.9 g and the LIVER (72 h, time 3 day) was 10.6 g. For the same compound, the ALP (72 h, time 3 day) was 1574.6 IU/L, the ALT (72 h, time 3 day) was 56.2 IU/L and the AST (72 h, time 3 day) was 78.6 IU/L. For the same compound, the BUN (72 h, time 3 day) was 15 mg/dL, the CRE (72 h, time 3 day) was 0.2 mg/dL and the Ca (72 h, time 3 day) was 11 mg/dL. The Cl (72 h, time 3 day) was 105.6 meq/L, the DBIL (72 h, time 3 day) was 0.012 mg/dL and the GLC (72 h, time 3 day) was 173.2 mg/dL. The IP (72 h, time 3 day) was 8.3 mg/dL, the K (72 h, time 3 day) was 4 meq/L and the LDH (72 h, time 3 day) was 80.4 IU/L. For the same compound, the Na (72 h, time 3 day) was 141.8 meq/L, the PL (72 h, time 3 day) was 141.6 mg/dL and the RALB (72 h, time 3 day) was 2.6 g/dL. For the same compound, the TBIL (72 h, time 3 day) was 0.03 mg/dL, the TG (72 h, time 3 day) was 72.8 mg/dL and the TP (72 h, time 3 day) was 5.5 g/dL. It also gave a gamma-GTP (72 h, time 3 day) of 1 IU/L, a TERMINAL_BW ([…], time 7 day) of 255.8 g and a TERMINAL_BW ([…], time 14 day) of 319.6 g. The TERMINAL_BW ([…], time 28 day) was 415.8 g, the APTT ([…], time 7 day) was 18.8 s and the Bas ([…], time 7 day) was 0%. It also gave an Eos ([…], time 7 day) of 1%, a Fbg ([…], time 7 day) of 277.8 mg/dL and a Hb ([…], time 7 day) of 13.6 g/dL. For the same compound, the Ht ([…], time 7 day) was 40.1%, the Lym ([…], time 7 day) was 77.8% and the MCHC ([…], time 7 day) was 33.9%. The MCV ([…], time 7 day) was 63 fL, the Mono ([…], time 7 day) was 3.4% and the Neu ([…], time 7 day) was 17.8%. It also gave a PT ([…], time 7 day) of 12.1 s, a Plat ([…], time 7 day) of 130 x10_4/uL and an RBC ([…], time 7 day) of 638 x10_4/ul. For the same compound, the Ret ([…], time 7 day) was 5.1%, the WBC ([…], time 7 day) was 97.2 x10_2/uL and the APTT ([…], time 14 day) was 17.4 s. For the same compound, the Bas ([…], time 14 day) was 0%, the Eos ([…], time 14 day) was 1.2% and the Fbg ([…], time 14 day) was 255.2 mg/dL. The Hb ([…], time 14 day) was 13.9 g/dL, the Ht ([…], time 14 day) was 40.1% and the Lym ([…], time 14 day) was 77.6%. It also gave an MCHC ([…], time 14 day) of 34.6%, an MCV ([…], time 14 day) of 60.5 fL and a Mono ([…], time 14 day) of 2.8%. The Neu ([…], time 14 day) was 17.6%, the PT ([…], time 14 day) was 12.2 s and the Plat ([…], time 14 day) was 122.5 x10_4/uL. For the same compound, the RBC ([…], time 14 day) was 662.2 x10_4/ul, the Ret ([…], time 14 day) was 5% and the WBC ([…], time 14 day) was 109.5 x10_2/uL. For the same compound, the APTT ([…], time 28 day) was 17.7 s, the Bas ([…], time 28 day) was 0.2% and the Eos ([…], time 28 day) was 1%. For the same compound, the Fbg ([…], time 28 day) was 259.2 mg/dL, the Hb ([…], time 28 day) was 15 g/dL and the Ht ([…], time 28 day) was 43%. It also gave a Lym ([…], time 28 day) of 76.6%, an MCHC ([…], time 28 day) of 34.8% and an MCV ([…], time 28 day) of 56.3 fL. The Mono ([…], time 28 day) was 3%, the Neu ([…], time 28 day) was 18.6% and the PT ([…], time 28 day) was 11.9 s. For the same compound, the Plat ([…], time 28 day) was 100.3 x10_4/uL, the RBC ([…], time 28 day) was 764.2 x10_4/ul and the Ret ([…], time 28 day) was 2.6%. For the same compound, the WBC ([…], time 28 day) was 134 x10_2/uL, the KIDNEY_L ([…], time 7 day) was 1 g and the KIDNEY_R ([…], time 7 day) was 1 g. The KIDNEY_TOTAL ([…], time 7 day) was 2.1 g, the KIDNEY_L ([…], time 14 day) was 1.3 g and the KIDNEY_R ([…], time 14 day) was 1.3 g. It also gave a KIDNEY_TOTAL ([…], time 14 day) of 2.6 g, a KIDNEY_L ([…], time 28 day) of 1.5 g and a KIDNEY_R ([…], time 28 day) of 1.5 g. It also gave a KIDNEY_TOTAL ([…], time 28 day) of 3 g, an LIVER ([…], time 7 day) of 12.7 g and an LIVER ([…], time 14 day) of 15.1 g. For the same compound, the LIVER ([…], time 28 day) was 17.9 g, the ALP ([…], time 7 day) was 1216.2 IU/L and the ALT ([…], time 7 day) was 59.4 IU/L. The AST ([…], time 7 day) was 80.2 IU/L, the BUN ([…], time 7 day) was 15.2 mg/dL and the CRE ([…], time 7 day) was 0.2 mg/dL. The Ca ([…], time 7 day) was 10.8 mg/dL, the Cl ([…], time 7 day) was 105.8 meq/L and the DBIL ([…], time 7 day) was 0.012 mg/dL. The GLC ([…], time 7 day) was 189.8 mg/dL, the IP ([…], time 7 day) was 7.9 mg/dL and the K ([…], time 7 day) was 4.1 meq/L. The LDH ([…], time 7 day) was 69.6 IU/L, the Na ([…], time 7 day) was 142 meq/L and the PL ([…], time 7 day) was 144 mg/dL. It also gave an RALB ([…], time 7 day) of 2.6 g/dL, a TBIL ([…], time 7 day) of 0.028 mg/dL and a TG ([…], time 7 day) of 96.4 mg/dL. It also gave a TP ([…], time 7 day) of 5.7 g/dL, a gamma-GTP ([…], time 7 day) of 0.8 IU/L and an ALP ([…], time 14 day) of 1413 IU/L. For the same compound, the ALT ([…], time 14 day) was 51.8 IU/L, the AST ([…], time 14 day) was 70.6 IU/L and the BUN ([…], time 14 day) was 16.2 mg/dL. The CRE ([…], time 14 day) was 0.2 mg/dL, the Ca ([…], time 14 day) was 11 mg/dL and the Cl ([…], time 14 day) was 104 meq/L. The DBIL ([…], time 14 day) was 0.014 mg/dL, the GLC ([…], time 14 day) was 182.4 mg/dL and the IP ([…], time 14 day) was 7.2 mg/dL. The K ([…], time 14 day) was 3.9 meq/L, the LDH ([…], time 14 day) was 78.6 IU/L and the Na ([…], time 14 day) was 142.6 meq/L. The PL ([…], time 14 day) was 161 mg/dL, the RALB ([…], time 14 day) was 2.7 g/dL and the TBIL ([…], time 14 day) was 0.03 mg/dL. It also gave a TG ([…], time 14 day) of 116 mg/dL, a TP ([…], time 14 day) of 6 g/dL and a gamma-GTP ([…], time 14 day) of 1.2 IU/L. It also gave an ALP ([…], time 28 day) of 1072.4 IU/L, an ALT ([…], time 28 day) of 46.4 IU/L and an AST ([…], time 28 day) of 67.8 IU/L. It also gave a BUN ([…], time 28 day) of 17.4 mg/dL, a CRE ([…], time 28 day) of 0.2 mg/dL and a Ca ([…], time 28 day) of 11.2 mg/dL. For the same compound, the Cl ([…], time 28 day) was 104.6 meq/L, the DBIL ([…], time 28 day) was 0.014 mg/dL and the GLC ([…], time 28 day) was 184.2 mg/dL. It also gave an IP ([…], time 28 day) of 6.7 mg/dL, a K ([…], time 28 day) of 3.9 meq/L and an LDH ([…], time 28 day) of 56.8 IU/L. For the same compound, the Na ([…], time 28 day) was 145.6 meq/L, the PL ([…], time 28 day) was 165.4 mg/dL and the RALB ([…], time 28 day) was 2.8 g/dL. The TBIL ([…], time 28 day) was 0.04 mg/dL, the TG ([…], time 28 day) was 183.8 mg/dL and the TP ([…], time 28 day) was 6.3 g/dL. The gamma-GTP ([…], time 28 day) was 1 IU/L.
